The source made the active and inactive calls. The calls are words filed in the database; no cut-off is given here.
Key:
[1] = tested on: RAW264.7; assay: Cytotoxicity against mouse RAW264.7 cells assessed as reduction in cell viability at 40 uM incubated for 24 hrs by MTT assay; format: toxicity, cell-based; conditions: raw264.7, 24 h
[2] = tested on: RAW264.7; assay: Antiinflammatory activity in mouse RAW264.7 cells assessed as inhibition of LPS-induced NO production at 20 uM preincubated with compound for 1 hrs followed by LPS-stimulation and measured after 24 hrs by griess reagent based assay relative to control; format: functional
[3] = tested on: RAW264.7; assay: Antiinflammatory activity in mouse RAW264.7 cells assessed as inhibition of LPS-induced IL-1beta production preincubated with compound for 1 hrs followed by LPS-stimulation and measured after 24 hrs by ELISA analysis; format: functional, cell-based
[4] = tested on: Rattus norvegicus; assay: Antiarthritic activity against adjuvant arthritis-induced Sprague-Dawley rat model assessed as reduction in body weight loss at 10 to 30 mg/kg, IG pre-administered with FCA for 10 days followed by compound administration once daily for 14 days and measured every 4 days; format: functional, organism-based; conditions: dose 10-30 mg/kg, time 14.0 day
[5] = tested on: RAW264.7; assay: Antiinflammatory activity in mouse RAW264.7 cells assessed as inhibition of LPS-induced NO production preincubated with compound for 1 hrs followed by LPS-stimulation and measured after 24 hrs by griess reagent based assay; format: functional, cell-based
[6] = tested on: RAW264.7; assay: Antiinflammatory activity in mouse RAW264.7 cells assessed as inhibition of LPS-induced TNF-alpha production preincubated with compound for 1 hrs followed by LPS-stimulation and measured after 24 hrs by ELISA analysis; format: functional, cell-based
[7] = tested on: Rattus norvegicus; assay: Antiarthritic activity against adjuvant arthritis-induced Sprague-Dawley rat model assessed as decrease in paw swelling pre-administered with FCA for 10 days followed by intragastric administration of compound once daily for 14 days and measured every 4 days; format: functional, organism-based; conditions: dose 10-30 mg/kg, route ig, time 14.0 day
[8] = tested on: Rattus norvegicus; assay: Antiarthritic activity against adjuvant arthritis-induced Sprague-Dawley rat model assessed as alleviation of synovial cell proliferation at 10 to 30 mg/kg, IG pre-administered with FCA for 10 days followed by compound administration once daily for 14 days by H&E staining microscopic analysis; format: functional, organism-based; conditions: dose 10-30 mg/kg, time 14.0 day
[9] = target: T1, MAP kinase p38 (Mus musculus) (UniProt P47811+O08911+Q9WUI1+Q9Z1B7); assay: Inhibition of LPS-induced p38 MAPK signaling activation in mouse RAW264.7 cells assessed as inhibition of p38 alpha phosphorylation preincubated with compound for 1 hrs followed by LPS stimulation and measured after 24 hrs by Western blot analysis; format: cell-based; conditions: dose 1-5 µM
[10] = tested on: RAW264.7; assay: Antiinflammatory activity in mouse RAW264.7 cells assessed as suppression of LPS-induced COX-2 expression preincubated with compound for 1 hrs followed by LPS-stimulation and measured after 24 hrs by Western blot analysis; format: functional, cell-based; conditions: dose 1-5 µM
[11] = target: Mitogen-activated protein kinase 14 (Mus musculus) (UniProt P47811); assay: Thermal stabilization of P38alpha in LPS-induced mouse RAW264.7 cells at 30 uM preincubated with compound for 1 hrs followed by LPS stimulation and measured after 24 hrs at 50 to 55 degreeC by cellular thermal shift assay; format: cell-based
[12] = tested on: Rattus norvegicus; assay: Antiarthritic activity against adjuvant arthritis-induced Sprague-Dawley rat model assessed as decrease in TNF-alpha level in serum pre-administered with FCA for 10 days followed by intragastric administration of compound once daily for 14 days by ELISA analysis; format: functional, organism-based; conditions: dose 10-30 mg/kg, route ig, time 14.0 day
[13] = tested on: RAW264.7; assay: Antiinflammatory activity in mouse RAW264.7 cells assessed as suppression of LPS-induced iNOS expression preincubated with compound for 1 hrs followed by LPS-stimulation and measured after 24 hrs by Western blot analysis; format: functional, cell-based; conditions: dose 1-5 µM
[14] = tested on: Rattus norvegicus; assay: Antiarthritic activity against adjuvant arthritis-induced Sprague-Dawley rat model assessed as improvement of arthritic index at 10 to 30 mg/kg, IG pre-administered with FCA for 10 days followed by compound administration once daily for 14 days and measured every 4 days; format: functional, organism-based; conditions: dose 10-30 mg/kg, time 14.0 day
[15] = tested on: Rattus norvegicus; assay: Antiarthritic activity against adjuvant arthritis-induced Sprague-Dawley rat model assessed as alleviation of inflammatory cell infiltration at 10 to 30 mg/kg, IG pre-administered with FCA for 10 days followed by compound administration once daily for 14 days by H&E staining microscopic analysis; format: functional, organism-based; conditions: dose 10-30 mg/kg, time 14.0 day
[16] = tested on: Rattus norvegicus; assay: Antiarthritic activity against adjuvant arthritis-induced Sprague-Dawley rat model assessed as decrease in IL-1beta level in serum pre-administered with FCA for 10 days followed by intragastric administration of compound once daily for 14 days by ELISA analysis; format: functional, organism-based; conditions: dose 10-30 mg/kg, route ig, time 14.0 day
[17] = target: T1, MAP kinase p38 (Mus musculus); assay: Inhibition of LPS-induced p38 MAPK signaling activation in mouse RAW264.7 cells assessed as reduction of MK2 phosphorylation preincubated with compound for 1 hrs followed by LPS stimulation and measured after 24 hrs by Western blot analysis; format: cell-based; conditions: dose 1-5 µM

Chain of Mitogen-activated protein kinase 14 (Mus musculus) (P47811 whole entry): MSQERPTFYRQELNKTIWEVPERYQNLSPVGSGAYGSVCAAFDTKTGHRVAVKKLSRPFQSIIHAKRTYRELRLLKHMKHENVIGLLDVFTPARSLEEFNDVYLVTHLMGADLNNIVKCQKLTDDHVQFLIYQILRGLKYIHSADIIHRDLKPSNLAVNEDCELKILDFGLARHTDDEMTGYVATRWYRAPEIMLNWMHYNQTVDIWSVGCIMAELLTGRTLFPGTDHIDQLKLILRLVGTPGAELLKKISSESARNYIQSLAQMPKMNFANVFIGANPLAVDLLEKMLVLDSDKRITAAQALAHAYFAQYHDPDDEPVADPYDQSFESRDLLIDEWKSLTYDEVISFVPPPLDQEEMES

Structure (SMILES)	Activity [1]	inhibition at 20 µM [2] [%]	other results
COc1ccc(S(=O)(=O)Nc2ccc3c(c2)C(=O)c2nc4ccccc4c(=O)n2-3)c(OC)c1	Non-Toxic	55.1	–
Nc1ccc2c(c1)C(=O)c1nc3ccccc3c(=O)n1-2	–	26.7	–
O=C1c2cc(NS(=O)(=O)c3ccc(OC(F)(F)F)cc3)ccc2-n2c1nc1ccccc1c2=O	Non-Toxic	42.9	–
O=C1c2cc(NS(=O)(=O)c3ccc(F)cc3)ccc2-n2c1nc1ccccc1c2=O	Non-Toxic	42.5	–
CC(C)(C)c1ccc(S(=O)(=O)Nc2ccc3c(c2)C(=O)c2nc4ccccc4c(=O)n2-3)cc1	Non-Toxic	20.6	–
COc1ccc(S(=O)(=O)Nc2ccc3c(c2)C(=O)c2nc4ccccc4c(=O)n2-3)cc1OC	Non-Toxic	57.2	–
COc1ccc(S(=O)(=O)Nc2ccc3nc4n(c(=O)c3c2)-c2ccccc2C4=O)cc1	Non-Toxic	94	Activity [3]: Dose-Dependent Effect; IC50 [3]: 8.48 µM; Activity [4]: Active; IC50 [5]: 1.25 µM; Activity [6]: Dose-Dependent Effect; IC50 [6]: 11.5 µM; Activity [7]: Dose-Dependent Effect; Activity [8]: Active; inhibition [9]: Dose-Dependent Effect; Activity [10]: Dose-Dependent Effect; Activity [11]: Active; Activity [12]: Dose-Dependent Effect; Activity [13]: Dose-Dependent Effect; Activity [14]: Active; Activity [15]: Active; Activity [16]: Dose-Dependent Effect; inhibition [17]: Dose-Dependent Effect
Cc1ccc(S(=O)(=O)Nc2ccc3nc4n(c(=O)c3c2)-c2ccccc2C4=O)cc1	Non-Toxic	90.2	IC50 [5]: 2.89 µM
O=C1c2ccccc2-n2c1nc1ccc(NS(=O)(=O)c3c(Cl)cccc3Cl)cc1c2=O	Non-Toxic	64.4	–
O=C1c2ccccc2-n2c1nc1ccc(NS(=O)(=O)c3ccc(Br)cc3)cc1c2=O	Non-Toxic	34.2	–
O=C1c2cc(NS(=O)(=O)c3ccccc3)ccc2-n2c1nc1ccccc1c2=O	Non-Toxic	28.1	–
O=C1c2ccccc2-n2c1nc1ccc(NS(=O)(=O)c3cccc(F)c3)cc1c2=O	Non-Toxic	64.4	–
CC(=O)Nc1ccc(S(=O)(=O)Nc2ccc3nc4n(c(=O)c3c2)-c2ccccc2C4=O)cc1	Non-Toxic	47.2	–
O=C1c2cc(NS(=O)(=O)c3cccc(F)c3)ccc2-n2c1nc1ccccc1c2=O	Non-Toxic	37.5	–
CC(C)c1cc(C(C)C)c(S(=O)(=O)Nc2ccc3nc4n(c(=O)c3c2)-c2ccccc2C4=O)c(C(C)C)c1	Non-Toxic	81.2	IC50 [5]: 4.21 µM
O=C1c2ccccc2-n2c1nc1ccc(NS(=O)(=O)c3ccccc3F)cc1c2=O	Non-Toxic	88.2	IC50 [5]: 2.72 µM
O=C1c2cc(NS(=O)(=O)c3ccc(Br)cc3)ccc2-n2c1nc1ccccc1c2=O	Non-Toxic	18.8	–
O=C1c2ccccc2-n2c1nc1ccc(NS(=O)(=O)c3ccc(F)cc3)cc1c2=O	Non-Toxic	85.4	IC50 [5]: 2.73 µM

Structure (SMILES)	Activity [1]	inhibition at 20 µM [2] [%]	other results
O=C1c2ccccc2-n2c1nc1ccccc1c2=O [TRYPTANTHRIN]	–	31.3	–
COc1ccc(S(=O)(=O)Nc2ccc3nc4n(c(=O)c3c2)-c2ccccc2C4=O)cc1OC	Non-Toxic	73	–
CC(=O)Nc1ccc(S(=O)(=O)Nc2ccc3c(c2)C(=O)c2nc4ccccc4c(=O)n2-3)cc1	Non-Toxic	17.3	–
CC(C)c1cc(C(C)C)c(S(=O)(=O)Nc2ccc3c(c2)C(=O)c2nc4ccccc4c(=O)n2-3)c(C(C)C)c1	Non-Toxic	31.6	–
CC(C)(C)c1ccc(S(=O)(=O)Nc2ccc3nc4n(c(=O)c3c2)-c2ccccc2C4=O)cc1	Non-Toxic	58.2	–
O=C1c2cc(NS(=O)(=O)c3ccccc3F)ccc2-n2c1nc1ccccc1c2=O	Non-Toxic	49.1	–
COc1ccc(S(=O)(=O)Nc2ccc3c(c2)C(=O)c2nc4ccccc4c(=O)n2-3)cc1	Non-Toxic	56.4	–
O=C1c2ccccc2-n2c1nc1ccc(NS(=O)(=O)c3ccccc3OC(F)(F)F)cc1c2=O	Non-Toxic	82.1	IC50 [5]: 3.88 µM
COc1ccc(S(=O)(=O)Nc2ccc3nc4n(c(=O)c3c2)-c2ccccc2C4=O)c(OC)c1	Non-Toxic	78	–
O=C1c2cc(NS(=O)(=O)c3c(Cl)cccc3Cl)ccc2-n2c1nc1ccccc1c2=O	Non-Toxic	38.4	–
O=C1c2ccccc2-n2c1nc1ccc(NS(=O)(=O)c3ccccc3)cc1c2=O	Non-Toxic	14.5	–
Nc1ccc2nc3n(c(=O)c2c1)-c1ccccc1C3=O	–	38.1	–
Cc1ccc(S(=O)(=O)Nc2ccc3c(c2)C(=O)c2nc4ccccc4c(=O)n2-3)cc1	Non-Toxic	55.8	–
O=C1c2cc(NS(=O)(=O)c3ccccc3C(F)(F)F)ccc2-n2c1nc1ccccc1c2=O	Non-Toxic	54.3	–
O=C1c2cc(NS(=O)(=O)c3ccccc3OC(F)(F)F)ccc2-n2c1nc1ccccc1c2=O	Non-Toxic	46.2	–
COc1ccc2c(c1)c(CC(=O)O)c(C)n2C(=O)c1ccc(Cl)cc1 [INDOMETHACIN]	Non-Toxic	32.1	–
O=C1c2ccccc2-n2c1nc1ccc(NS(=O)(=O)c3ccc(OC(F)(F)F)cc3)cc1c2=O	Non-Toxic	63.6	–
O=C1c2ccccc2-n2c1nc1ccc(NS(=O)(=O)c3ccccc3C(F)(F)F)cc1c2=O	Non-Toxic	74.9	–

From ChEMBL document CHEMBL5352448, “Novel tryptanthrin derivatives with benzenesulfonamide substituents: Design, synthesis, and anti-inflammatory evaluation” (Eur J Med Chem, 2023)
